Measured values published in ChEMBL document CHEMBL1201862, “PubChem BioAssay data set” (2004).
Activity calls are given as the source filed them.

Columns and labels:
[1] = target: Cyclin-dependent kinase 5/CDK5 activator 1 (Homo sapiens, UniProt Q00535); assay: blockade of human CDK5 activity – biochemical, cherry-picked samples, set 2, dose response (AID 504545)
[2] = target: Cytochrome P450 2C9 (Homo sapiens, UniProt P11712); settings: Potency
[3] = target: T1, Eukaryotic translation initiation factor 2-alpha kinase 3 (Homo sapiens, UniProt Q9NZJ5); assay: Counterscreen assay for PERK inhibitors: Dose response cell-based high throughput screening assay to measure inhibition of PERK at 6 hours. [Related pubchem assays: 1522, 1416 ]; assay type: functional
T1 sequence (Q9NZJ5 whole entry): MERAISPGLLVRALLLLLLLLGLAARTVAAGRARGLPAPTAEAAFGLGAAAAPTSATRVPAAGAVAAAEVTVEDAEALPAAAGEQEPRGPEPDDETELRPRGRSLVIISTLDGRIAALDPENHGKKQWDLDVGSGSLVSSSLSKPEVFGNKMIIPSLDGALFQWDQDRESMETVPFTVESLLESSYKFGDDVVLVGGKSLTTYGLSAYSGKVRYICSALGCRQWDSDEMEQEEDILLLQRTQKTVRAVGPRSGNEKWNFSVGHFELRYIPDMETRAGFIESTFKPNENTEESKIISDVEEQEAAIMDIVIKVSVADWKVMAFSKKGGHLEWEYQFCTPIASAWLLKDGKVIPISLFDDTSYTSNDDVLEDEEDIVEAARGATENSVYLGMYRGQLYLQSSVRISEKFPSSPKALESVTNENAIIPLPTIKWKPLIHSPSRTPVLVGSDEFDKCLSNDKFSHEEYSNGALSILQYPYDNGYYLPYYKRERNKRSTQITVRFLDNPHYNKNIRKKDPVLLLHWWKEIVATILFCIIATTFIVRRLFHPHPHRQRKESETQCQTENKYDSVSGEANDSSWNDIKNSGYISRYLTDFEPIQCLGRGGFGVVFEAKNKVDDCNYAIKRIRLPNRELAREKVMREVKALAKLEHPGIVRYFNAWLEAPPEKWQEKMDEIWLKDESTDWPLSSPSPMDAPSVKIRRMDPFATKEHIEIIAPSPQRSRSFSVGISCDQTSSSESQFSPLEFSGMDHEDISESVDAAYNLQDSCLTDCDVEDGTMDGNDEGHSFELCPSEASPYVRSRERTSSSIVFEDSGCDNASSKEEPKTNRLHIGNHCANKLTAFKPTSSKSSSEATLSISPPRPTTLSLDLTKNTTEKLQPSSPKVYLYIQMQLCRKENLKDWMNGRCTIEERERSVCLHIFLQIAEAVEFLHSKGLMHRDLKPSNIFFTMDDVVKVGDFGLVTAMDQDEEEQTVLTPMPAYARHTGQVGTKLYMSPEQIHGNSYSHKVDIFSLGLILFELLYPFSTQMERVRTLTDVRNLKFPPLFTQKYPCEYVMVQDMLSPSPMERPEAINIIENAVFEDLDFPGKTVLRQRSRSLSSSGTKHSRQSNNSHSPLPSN

[4] = target: T1, Eukaryotic translation initiation factor 2-alpha kinase 3; assay: Dose response cell-based high-throughput screening assay to measure PERK inhibition. [Related pubchem assays: 1416 ]; assay type: functional
[5] = target: T2, Leucine aminopeptidase (Plasmodium falciparum 3D7, UniProt Q8IL11); assay: P. falciparum M17LAP inhibitors, primary screen, biochemical, fluorogenic H-Leu-NHMec substrate, 1536-well (AID 1619); assay type: functional
T2 sequence (Q8IL11 whole entry): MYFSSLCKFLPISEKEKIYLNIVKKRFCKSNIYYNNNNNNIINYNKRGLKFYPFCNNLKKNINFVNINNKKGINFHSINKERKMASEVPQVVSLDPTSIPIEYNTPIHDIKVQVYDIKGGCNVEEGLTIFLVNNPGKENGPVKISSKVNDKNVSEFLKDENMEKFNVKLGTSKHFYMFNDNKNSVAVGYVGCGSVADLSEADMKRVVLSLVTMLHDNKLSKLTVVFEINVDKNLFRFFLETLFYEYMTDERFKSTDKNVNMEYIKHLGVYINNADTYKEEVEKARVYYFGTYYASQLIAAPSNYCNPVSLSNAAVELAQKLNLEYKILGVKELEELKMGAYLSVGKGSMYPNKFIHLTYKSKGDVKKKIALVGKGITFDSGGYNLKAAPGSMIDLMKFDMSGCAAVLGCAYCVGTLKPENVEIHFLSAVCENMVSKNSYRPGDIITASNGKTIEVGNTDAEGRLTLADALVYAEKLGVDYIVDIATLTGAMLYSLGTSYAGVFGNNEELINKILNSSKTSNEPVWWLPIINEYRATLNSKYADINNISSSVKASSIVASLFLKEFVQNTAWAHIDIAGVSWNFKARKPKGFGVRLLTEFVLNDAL

[6] = Cytotoxicity screening for potential Inhibitors of Bacterial Capsule Biogenesis. [Related pubchem assays (depositor defined):AID488970]; assay type: functional
[7] = target: Glyceraldehyde-3-phosphate dehydrogenase (Homo sapiens, UniProt P04406)
Sequence of Glyceraldehyde-3-phosphate dehydrogenase (P04406 whole entry): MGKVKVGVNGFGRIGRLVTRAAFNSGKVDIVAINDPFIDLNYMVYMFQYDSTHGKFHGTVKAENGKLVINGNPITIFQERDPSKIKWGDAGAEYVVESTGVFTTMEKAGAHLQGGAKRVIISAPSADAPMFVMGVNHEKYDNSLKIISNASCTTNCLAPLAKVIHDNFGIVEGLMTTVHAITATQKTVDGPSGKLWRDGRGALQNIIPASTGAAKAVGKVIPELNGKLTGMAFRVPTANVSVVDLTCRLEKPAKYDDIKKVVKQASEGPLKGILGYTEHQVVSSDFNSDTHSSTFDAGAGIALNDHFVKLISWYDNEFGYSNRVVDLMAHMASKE

[8] = target: T3, Dual specificity protein phosphatase 6 (Rattus norvegicus, UniProt Q64346); assay type: functional
T3 sequence (Q64346 whole entry): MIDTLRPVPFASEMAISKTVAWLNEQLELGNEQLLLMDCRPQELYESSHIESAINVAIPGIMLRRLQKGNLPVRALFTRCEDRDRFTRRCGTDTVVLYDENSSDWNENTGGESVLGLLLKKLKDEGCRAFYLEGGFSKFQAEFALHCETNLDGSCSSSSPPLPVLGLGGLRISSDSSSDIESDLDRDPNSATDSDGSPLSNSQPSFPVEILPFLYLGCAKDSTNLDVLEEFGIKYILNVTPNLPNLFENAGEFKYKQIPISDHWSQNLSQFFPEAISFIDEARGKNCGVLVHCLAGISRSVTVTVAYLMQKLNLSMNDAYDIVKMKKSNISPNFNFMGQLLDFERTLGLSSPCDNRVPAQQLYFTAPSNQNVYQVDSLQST

[9] = target: Heat shock 70 kDa protein 1A (Homo sapiens, UniProt P0DMV8); assay: inhibition of Hsp70 binding activity – biochemical, fluorescence polarization, SAR follow-up (AID 1072)
Sequence of Heat shock 70 kDa protein 1A (P0DMV8 whole entry): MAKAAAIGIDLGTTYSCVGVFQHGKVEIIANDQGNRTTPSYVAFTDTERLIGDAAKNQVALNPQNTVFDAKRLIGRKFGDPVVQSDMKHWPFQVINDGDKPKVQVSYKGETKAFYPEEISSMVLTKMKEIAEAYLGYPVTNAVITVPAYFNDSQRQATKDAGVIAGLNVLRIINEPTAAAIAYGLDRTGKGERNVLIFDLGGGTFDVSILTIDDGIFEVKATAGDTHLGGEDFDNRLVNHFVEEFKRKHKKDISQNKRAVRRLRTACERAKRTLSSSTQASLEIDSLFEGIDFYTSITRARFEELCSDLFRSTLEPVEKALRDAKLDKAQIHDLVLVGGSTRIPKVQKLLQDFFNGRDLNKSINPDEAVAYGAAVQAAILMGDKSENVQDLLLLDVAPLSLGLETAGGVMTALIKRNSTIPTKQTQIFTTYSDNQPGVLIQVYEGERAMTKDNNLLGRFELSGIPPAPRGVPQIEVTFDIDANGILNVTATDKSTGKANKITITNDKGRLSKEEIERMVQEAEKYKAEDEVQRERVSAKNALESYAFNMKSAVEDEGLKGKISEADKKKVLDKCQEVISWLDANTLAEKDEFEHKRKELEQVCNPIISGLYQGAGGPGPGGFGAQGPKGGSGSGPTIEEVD

[10] = target: T4, Tyrosine-protein phosphatase non-receptor type 7 (Homo sapiens, UniProt P35236); assay type: functional
T4 sequence (P35236 whole entry): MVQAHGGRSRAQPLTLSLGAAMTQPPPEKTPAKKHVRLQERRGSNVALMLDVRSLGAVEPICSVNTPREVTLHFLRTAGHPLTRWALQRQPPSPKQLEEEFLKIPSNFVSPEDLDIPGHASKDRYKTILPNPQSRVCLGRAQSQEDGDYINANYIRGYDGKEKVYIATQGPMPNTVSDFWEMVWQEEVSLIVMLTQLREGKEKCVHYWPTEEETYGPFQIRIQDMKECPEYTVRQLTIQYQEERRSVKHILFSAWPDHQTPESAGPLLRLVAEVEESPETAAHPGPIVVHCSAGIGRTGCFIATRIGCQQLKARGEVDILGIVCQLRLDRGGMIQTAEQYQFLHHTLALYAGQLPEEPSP

[11] = target: Heat shock cognate 71 kDa protein (Homo sapiens, UniProt P11142); assay: In Vitro Hsc70 Dose Response Fluorescence Polarization Assay. [Related pubchem assays: 1072 ]
Sequence of Heat shock cognate 71 kDa protein (P11142 whole entry): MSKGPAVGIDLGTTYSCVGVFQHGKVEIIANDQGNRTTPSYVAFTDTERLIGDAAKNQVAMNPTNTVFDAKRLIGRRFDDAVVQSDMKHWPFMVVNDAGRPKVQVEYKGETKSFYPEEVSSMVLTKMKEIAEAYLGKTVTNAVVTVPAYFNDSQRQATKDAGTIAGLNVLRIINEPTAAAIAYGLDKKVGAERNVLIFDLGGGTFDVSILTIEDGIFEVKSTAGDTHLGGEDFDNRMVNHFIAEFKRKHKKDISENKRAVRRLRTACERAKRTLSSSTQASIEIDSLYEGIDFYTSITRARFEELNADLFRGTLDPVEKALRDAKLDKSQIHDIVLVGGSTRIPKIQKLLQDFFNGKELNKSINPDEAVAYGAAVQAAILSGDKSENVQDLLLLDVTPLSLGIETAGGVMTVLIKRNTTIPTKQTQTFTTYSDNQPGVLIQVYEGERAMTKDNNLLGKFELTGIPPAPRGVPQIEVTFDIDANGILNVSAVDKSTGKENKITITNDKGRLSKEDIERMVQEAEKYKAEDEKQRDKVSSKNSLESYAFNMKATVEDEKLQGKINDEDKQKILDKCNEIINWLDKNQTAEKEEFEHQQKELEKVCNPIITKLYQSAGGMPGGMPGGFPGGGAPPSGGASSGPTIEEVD

[12] = target: T3, Dual specificity protein phosphatase 6
[13] = Vero E6 cell cytotoxicity, dose response, cytotoxicity control for non-replicating M. tuberculosis project, secondary assay (AID 492998); assay type: functional, VeroE6; settings: Vero C1008
[14] = Luminescence Cell-Based Dose Response HTS to Identify Inhibitors of 5'UTR Stem-Loop Driven Prion Protein mRNA Translation in H4 Neuroglioblastoma Cells. [Related pubchem assays: 1827 (Project Summary), 1813 (Primary HTS)]; assay type: functional
[15] = tested on: INS1; assay: INS-1E survival protection against cytokine death – cell-based, luminescence, retest, dose response (AID 449756); assay type: functional; settings: Rattus norvegicus;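 further: cell death triggered by IL-1 beta plus TNF-alpha plus IFN-gamma mixture; protective hits raise ATP signal compared with cytokine alone wells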
[16] = Luminescence-based counterscreen assay for KLF5 inhibitors: dose response cell-based high throughput screening assay to identify cytotoxic compounds using the IEC-6 intestinal epithelial cell line. [Related pubchem assays: 1700 (Primary screen.), 1834 (Confirmation screen.), 1858 (Summary AID.), 1905 (Counterscreen.)]; assay type: functional
[17] = target: T5, Microphthalmia-associated transcription factor (Homo sapiens, UniProt O75030); assay: reducers of TRPM1 reporter luminescence, concentration series – cell-based, SK-MEL-5, cherry-picked, set 3, MITF inhibitor project, dose response (AID 493073); assay type: functional;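 further: SK-MEL-5 melanoma cells with luciferase driven by the MITF target TRPM1 promoter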
T5 sequence (O75030 whole entry): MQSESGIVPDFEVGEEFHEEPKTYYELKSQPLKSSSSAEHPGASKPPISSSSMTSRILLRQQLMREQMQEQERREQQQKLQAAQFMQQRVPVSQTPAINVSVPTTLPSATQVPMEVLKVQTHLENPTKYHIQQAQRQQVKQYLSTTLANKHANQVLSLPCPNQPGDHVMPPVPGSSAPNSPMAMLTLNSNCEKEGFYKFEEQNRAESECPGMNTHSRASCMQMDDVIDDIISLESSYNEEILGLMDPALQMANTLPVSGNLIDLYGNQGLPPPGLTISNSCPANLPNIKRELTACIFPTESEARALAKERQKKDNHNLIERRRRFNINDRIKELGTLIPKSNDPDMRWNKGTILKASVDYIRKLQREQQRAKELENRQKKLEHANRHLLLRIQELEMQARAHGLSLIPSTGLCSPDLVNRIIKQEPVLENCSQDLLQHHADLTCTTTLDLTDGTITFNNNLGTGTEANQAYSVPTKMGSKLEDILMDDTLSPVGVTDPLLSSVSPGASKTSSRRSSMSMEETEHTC

[18] = HepG2 cell cytotoxicity, dose response, cytotoxicity control for non-replicating M. tuberculosis project (AID 489018); assay type: functional; settings: Mycobacterium tuberculosis
[19] = tested on: HEK293; assay: EBV LMP1 TES2 canonical NF-kB signalling blockers – cell-based, HEK293, luciferase, cherry-pick, dose response (AID 588343); assay type: functional; settings: Homo sapiens
[20] = cells; assay type: functional, cell-based
[21] = HEK-293T viability loss after treatment – luminescence, T-cell screen hits, cytotoxicity control for TCR NF-kB inhibitor project, dose response (AID 489026); assay type: functional, cell-based;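 further: cells exposed to compound about 14 hours before the viability readout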
[22] = cells; assay type: functional, cell-based; remark: listed apart in the source
[23] = THP-1 cell cytotoxicity, dose response, cytotoxicity control for non-replicating M. tuberculosis project (AID 489025); assay type: functional
[24] = target: Mothers against decapentaplegic homolog 3 (Homo sapiens, UniProt P84022); assay: blockers of Smad3 complex formation in lysate – cell lysate, secondary confirmation, chemiluminescent ELISA, HEK293 lysate, dose response (AID 1058); assay type: functional
Sequence of Mothers against decapentaplegic homolog 3 (P84022 whole entry): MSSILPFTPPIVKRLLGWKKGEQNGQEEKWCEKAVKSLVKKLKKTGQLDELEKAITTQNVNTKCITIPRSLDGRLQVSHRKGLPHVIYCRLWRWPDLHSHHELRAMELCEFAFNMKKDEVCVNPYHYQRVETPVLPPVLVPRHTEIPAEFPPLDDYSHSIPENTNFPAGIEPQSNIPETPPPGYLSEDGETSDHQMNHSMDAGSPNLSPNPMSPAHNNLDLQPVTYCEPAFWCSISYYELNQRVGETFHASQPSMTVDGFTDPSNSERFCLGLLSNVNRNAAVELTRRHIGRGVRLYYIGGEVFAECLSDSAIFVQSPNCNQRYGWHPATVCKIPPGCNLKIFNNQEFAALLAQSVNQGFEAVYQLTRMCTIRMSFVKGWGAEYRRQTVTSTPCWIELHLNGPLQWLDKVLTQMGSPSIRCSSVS

Sequence of Cytochrome P450 2C9 (P11712 whole entry): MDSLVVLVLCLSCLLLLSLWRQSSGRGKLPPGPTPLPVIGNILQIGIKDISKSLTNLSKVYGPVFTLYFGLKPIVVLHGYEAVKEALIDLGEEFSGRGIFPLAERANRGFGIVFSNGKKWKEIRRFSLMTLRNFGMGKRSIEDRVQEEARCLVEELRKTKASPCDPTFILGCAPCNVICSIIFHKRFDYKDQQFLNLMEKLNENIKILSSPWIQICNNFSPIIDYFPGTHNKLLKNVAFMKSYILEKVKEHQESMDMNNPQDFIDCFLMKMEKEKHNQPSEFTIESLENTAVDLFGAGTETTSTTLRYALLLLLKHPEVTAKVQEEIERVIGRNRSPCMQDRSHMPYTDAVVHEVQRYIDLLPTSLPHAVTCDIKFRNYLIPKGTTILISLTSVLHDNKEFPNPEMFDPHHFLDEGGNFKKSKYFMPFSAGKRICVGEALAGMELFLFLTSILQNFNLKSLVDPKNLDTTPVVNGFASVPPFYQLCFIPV
Sequence of Cyclin-dependent kinase 5/CDK5 activator 1 (Q00535 whole entry): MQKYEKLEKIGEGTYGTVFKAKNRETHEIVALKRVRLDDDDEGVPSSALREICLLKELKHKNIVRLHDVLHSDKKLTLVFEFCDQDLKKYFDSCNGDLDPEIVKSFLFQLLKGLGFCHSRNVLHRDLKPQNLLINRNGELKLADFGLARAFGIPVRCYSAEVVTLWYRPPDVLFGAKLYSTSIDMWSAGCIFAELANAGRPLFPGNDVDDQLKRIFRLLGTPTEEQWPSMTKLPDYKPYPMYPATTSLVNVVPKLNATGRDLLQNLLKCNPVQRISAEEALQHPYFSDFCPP
Sequence of Cyclin-dependent kinase 5/CDK5 activator 1 (Q15078 whole entry, further chain): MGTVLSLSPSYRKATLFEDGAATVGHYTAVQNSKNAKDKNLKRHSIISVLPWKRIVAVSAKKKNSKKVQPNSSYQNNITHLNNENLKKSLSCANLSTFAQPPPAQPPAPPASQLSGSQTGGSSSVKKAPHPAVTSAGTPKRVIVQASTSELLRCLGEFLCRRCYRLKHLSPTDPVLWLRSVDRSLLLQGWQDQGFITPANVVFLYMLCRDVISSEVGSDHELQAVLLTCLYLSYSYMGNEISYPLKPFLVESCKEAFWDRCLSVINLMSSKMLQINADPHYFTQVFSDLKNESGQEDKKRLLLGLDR

## CCC(C)(C)C1CCc2n[nH]c(C(=O)NCCN3CCOCC3)c2C1 (centres undefined)
[1]
  AC50: 20.9 µM (active)

## CCOC(=O)OCC1OC(c2ccccc2)C=CC1Oc1ccc(F)cc1C (centres undefined)
[2]
  AC50: 3.16 µM (inconclusive)

## CC(C)C(=O)NNc1ccc(C(F)(F)F)cn1
[3]
  EC50: > 55.7 µM (not active)
[4]
  EC50: > 55.7 µM (not active)

## CC1(C(=O)O)CCC(C(=O)Nc2ccc3ccccc3c2)C1(C)C (centres undefined)
[5]
  IC50: 12.5 µM (active)
[6]
  CC50: > 100 µM (active)

## CCCCOC(=O)c1ccc2c(c1)C1C=CCC1C(C(=O)O)N2 (centres undefined)
[7]
  IC50: 76.6 µM (active)
[8]
  IC50: 4.02 µM (active)
[9]
  IC50: 63.3 µM (active)
[10]
  IC50: 10.4 µM (active)
[11]
  IC50: > 100 µM (not active)
[12]
  IC50: 41.8 µM (active)

## COc1ccc(N/N=C/c2c(C(=O)O)ccc3ccccc23)cc1
[13]
  CC50: 2 µM (active)
[14]
  EC50: 9.27 µM (active)
[15]
  AC50: 786 nM (active)
[16]
  IC50: 37 µM (not active)
[17]
  AC50: 5.11 µM (active)
[18]
  CC50: 4.9 µM (active)
[19]
  AC50: 4.56 µM (active)
[20]
  EC50: 9.66 µM (active)
[21]
  IC50: > 80 µM (inactive)
[22]
  EC50: > 350 µM (not active)
[23]
  CC50: 364 nM (active)

## O=C(O)CCc1ccc(O)c(O)c1 [DIHYDROCAFFEIC ACID]
[24]
  IC50: > 50 µM (not active)
